In patent publication US20150299182A1, “CRYSTALLINE FORMS OF (1S)-1-[5-(AMINO)-1,2,4-THIADIAZOL-3-YL]ETHANE-1,2-DIOL” (Array BioPharma Inc., priority 2012, published 2015):
Entries after “also recorded” stand apart in the source; their conditions may differ. Counter-ions that a name gives are not always drawn.

Legend:
[1] = Moisture balance / vapor sorption (hygroscopicity); format: physicochemical; details: for phase post vapor sorption experiment: based on XRPD results; for hygroscopicity: 5% to 95% relative humidity; for relative humidity above which the material is hygroscopic: vapor sorption curve; for sorbed water retained: upon drying back down to ambient relative humidity; for relative humidity by which the material fully re-hydrates: after drying to 5% relative humidity
Description: Moisture balance data was collected using a VTI SGA 100 or SGA CX symmetrical vapor sorption analyzer. Relative humidity was varied in increments or 5%, starting at 5% relative humidity thereby increasing to 95% relative humidity, and then undergoing a drying cycle back to 5% relative humidity. Equilibrium criteria was set at 0.01% weight change in 1 minute with a max equilibrium time of 180 minutes. Approximately 1-15 mg of sample was used.

[2] = 4 months
Description: (§1) Chemical and physical stability was initiated on these forms and samples were stored at 60° C., 40° C./75% RH, 25° C./60% RH, and 5° C.

[3] = Chemical and physical solid state stability on storage; details: for form change on storage: up to 4 months (phosphate salt up to 6 weeks)
Description: as §1

[4] = Storage at ambient conditions (form conversion); format: physicochemical; details: stored at ambient conditions
[5] = Thermal stability characteristics; format: physicochemical
Description: The thermal properties of AMG151 samples were characterized using a DSC Q1000 or DSC Q 100, TA Instruments, differential scanning calorimetry, and a TGA Q 500, TA Instruments, thermogravimetric analyzer. Data analysis was performed utilizing Universal Analysis 2000, TA Instruments. Heating rates of 10° C./min were used over a variety of temperature ranges for differential scanning calorimetry and thermogravimetric analysis. Samples ranging from <1-5 mg were prepared in crimped or open aluminum pans for DSC analysis.

[6] = Exposure to 95% relative humidity chamber/jar, then XRPD; format: physicochemical
Description: The DSC curve indicates a broad endotherm around 150° C. (attributed to desolvation), and one sharp endotherm around 193° C. (attributed to a melt). The TG curve indicates a 5.0% weight loss up to 175° C.
The phosphate salt Form D material was generated from desolvating Form C, and a representative XRPD pattern is shown in FIG. 34. The sample appears to be crystalline with an irregular morphology. The DSC curve indicates a sharp endotherm around 193° C. (attributed to a melt). […] The material appears to retain this sorbed water upon drying down to 15% relative humidity; however, upon reaching 5% relative humidity the material losses all of its sorbed water and returns to dry weight.

[7] = vapor sorption, as high as 95% relative humidity

Row | phase post vapor sorption experiment [1] | hygroscopicity ([1]; vapor sorption) | relative humidity above which the material is hygroscopic [1] | weight change [1, 7] | Structure (SMILES) | further results
1 | remained unchanged | hygroscopic | – | – | Cc1ncccc1Oc1cc(Sc2ccccn2)cnc1Nc1nc([C@H](O)CO)ns1 [Amorphous AMG151, (1S)-1-[5-({3-[(2-methylpyridin-3-yl)oxy]-5-(pyridin-2-ylsulfanyl)pyridin-2-yl}amino)-1,2,4-thiadiazol-3-yl]ethane-1,2-diol] | –
2 | remained unchanged | non-hygroscopic | – | – | Cc1ncccc1Oc1cc(Sc2ccccn2)cnc1Nc1nc([C@H](O)CO)ns1 [Form A, (1S)-1-[5-({3-[(2-methylpyridin-3-yl)oxy]-5-(pyridin-2-ylsulfanyl)pyridin-2-yl}amino)-1,2,4-thiadiazol-3-yl]ethane-1,2-diol] | –
3 | remained unchanged | non-hygroscopic | – | – | Cc1ncccc1Oc1cc(Sc2ccccn2)cnc1Nc1nc([C@H](O)CO)ns1 [Form F, (1S)-1-[5-({3-[(2-methylpyridin-3-yl)oxy]-5-(pyridin-2-ylsulfanyl)pyridin-2-yl}amino)-1,2,4-thiadiazol-3-yl]ethane-1,2-diol] | time found chemically stable [2]: up to 4 months; form change on storage ([3]; 40° C./75% RH): no form change; form change on storage ([3]; 60° C., listed as free base form F): no form change
4 | converted to an amorphous phase | hygroscopic | above 75 % relative humidity | 20% | Cc1ncccc1Oc1cc(Sc2ccccn2)cnc1Nc1nc([C@H](O)CO)ns1 [HCl salt Form B, (1S)-1-[5-({3-[(2-methylpyridin-3-yl)oxy]-5-(pyridin-2-ylsulfanyl)pyridin-2-yl}amino)-1,2,4-thiadiazol-3-yl]ethane-1,2-diol] | –
5 | – | hygroscopic | – | – | Cc1ncccc1Oc1cc(Sc2ccccn2)cnc1Nc1nc([C@H](O)CO)ns1 [mono-hydrochloride salt Form C, (1S)-1-[5-({3-[(2-methylpyridin-3-yl)oxy]-5-(pyridin-2-ylsulfanyl)pyridin-2-yl}amino)-1,2,4-thiadiazol-3-yl]ethane-1,2-diol] | thermal stability [5]: less preferred thermal stability characteristics
6 | converted to Form A | slightly hygroscopic | – | 3.5% | Cc1ncccc1Oc1cc(Sc2ccccn2)cnc1Nc1nc([C@H](O)CO)ns1 [phosphate salt Form B, (1S)-1-[5-({3-[(2-methylpyridin-3-yl)oxy]-5-(pyridin-2-ylsulfanyl)pyridin-2-yl}amino)-1,2,4-thiadiazol-3-yl]ethane-1,2-diol] | stability of the phase as a function of relative humidity [1]: unstable as a function of ambient relative humidity; weight loss upon drying ([1]; upon drying down to 5% relative humidity): 8.5%
7 | remained unchanged | hygroscopic | above 55 % relative humidity | – | Cc1ncccc1Oc1cc(Sc2ccccn2)cnc1Nc1nc([C@H](O)CO)ns1 [phosphate salt Form D, (1S)-1-[5-({3-[(2-methylpyridin-3-yl)oxy]-5-(pyridin-2-ylsulfanyl)pyridin-2-yl}amino)-1,2,4-thiadiazol-3-yl]ethane-1,2-diol] | stability of the phase as a function of relative humidity [1]: unstable as a function of ambient relative humidity; weight change ([1]; around 75% relative humidity (appears to convert to a mono-hydrate)): 3.0%; form after exposure to 95% relative humidity [6]: convert to Form E
8 | – | slightly hygroscopic | Above 65 % relative humidity | – | Cc1ncccc1Oc1cc(Sc2ccccn2)cnc1Nc1nc([C@H](O)CO)ns1 [phosphate salt Form E, (1S)-1-[5-({3-[(2-methylpyridin-3-yl)oxy]-5-(pyridin-2-ylsulfanyl)pyridin-2-yl}amino)-1,2,4-thiadiazol-3-yl]ethane-1,2-diol] | stability of the phase as a function of relative humidity [1]: unstable as a function of ambient relative humidity; relative humidity by which the material fully re-hydrates [1]: ≤ 65 % relative humidity

Further lines, the molecule ahead of its results:

Row | Structure (SMILES) | phase post vapor sorption experiment [1] | hygroscopicity ([1]; vapor sorption) | relative humidity above which the material is hygroscopic [1] | weight change [1, 7] | further results
9 | Cc1ncccc1Oc1cc(Sc2ccccn2)cnc1Nc1nc([C@H](O)CO)ns1 [Form G, (1S)-1-[5-({3-[(2-methylpyridin-3-yl)oxy]-5-(pyridin-2-ylsulfanyl)pyridin-2-yl}amino)-1,2,4-thiadiazol-3-yl]ethane-1,2-diol] | – | – | – | – | form conversion on storage [4]: readily convert to Form F
10 | Cc1ncccc1Oc1cc(Sc2ccccn2)cnc1Nc1nc([C@H](O)CO)ns1 [HCl salt Form A, (1S)-1-[5-({3-[(2-methylpyridin-3-yl)oxy]-5-(pyridin-2-ylsulfanyl)pyridin-2-yl}amino)-1,2,4-thiadiazol-3-yl]ethane-1,2-diol] | converted to an amorphous phase | hygroscopic | above 55 % relative humidity | 9% | –
11 | Cc1ncccc1Oc1cc(Sc2ccccn2)cnc1Nc1nc([C@H](O)CO)ns1 [Hydrate Form C, (1S)-1-[5-({3-[(2-methylpyridin-3-yl)oxy]-5-(pyridin-2-ylsulfanyl)pyridin-2-yl}amino)-1,2,4-thiadiazol-3-yl]ethane-1,2-diol] | remained unchanged | non hygroscopic; also recorded: non-hygroscopic | – | 0.25% | wt change ([1]; from 5% to 95% relative humidity): < 0.5%; form change on storage ([3]; 40° C./75% RH): no form change; time after which conversion to Form A was found ([3]; 60° C.): 2 weeks; form change on storage ([3]; 60° C., listed as free base mono-hydrate): converted to Form A
12 | Cc1ncccc1Oc1cc(Sc2ccccn2)cnc1Nc1nc([C@H](O)CO)ns1 [MSA salt Form B, (1S)-1-[5-({3-[(2-methylpyridin-3-yl)oxy]-5-(pyridin-2-ylsulfanyl)pyridin-2-yl}amino)-1,2,4-thiadiazol-3-yl]ethane-1,2-diol] | converted to Form C | hygroscopic | above 65 % relative humidity | 16.5% | stability of the phase as a function of relative humidity [1]: unstable as a function of relative humidity; sorbed water retained [1]: 2-3%
13 | Cc1ncccc1Oc1cc(Sc2ccccn2)cnc1Nc1nc([C@H](O)CO)ns1 [MSA salt Form C, (1S)-1-[5-({3-[(2-methylpyridin-3-yl)oxy]-5-(pyridin-2-ylsulfanyl)pyridin-2-yl}amino)-1,2,4-thiadiazol-3-yl]ethane-1,2-diol] | remained unchanged | hygroscopic | above 75 % relative humidity | 18% | sorbed water retained [1]: 2-3%
14 | Cc1ncccc1Oc1cc(Sc2ccccn2)cnc1Nc1nc([C@H](O)CO)ns1 [fumarate co-crystal Form A, (1S)-1-[5-({3-[(2-methylpyridin-3-yl)oxy]-5-(pyridin-2-ylsulfanyl)pyridin-2-yl}amino)-1,2,4-thiadiazol-3-yl]ethane-1,2-diol] | remained unchanged | non-hygroscopic | – | 0.075% | form change on storage ([3]; 40° C./75% RH): no form change; form change on storage ([3]; 60° C.): no form change
15 | Cc1ncccc1Oc1cc(Sc2ccccn2)cnc1Nc1nc([C@H](O)CO)ns1 [phosphate salt Form A, (1S)-1-[5-({3-[(2-methylpyridin-3-yl)oxy]-5-(pyridin-2-ylsulfanyl)pyridin-2-yl}amino)-1,2,4-thiadiazol-3-yl]ethane-1,2-diol] | remained unchanged | non-hygroscopic | – | 0.8% | relative humidity by which the material fully re-hydrates [1]: ≤ 55 % relative humidity
16 | Cc1ncccc1Oc1cc(Sc2ccccn2)cnc1Nc1nc([C@H](O)CO)ns1 [phosphate salt Form C, (1S)-1-[5-({3-[(2-methylpyridin-3-yl)oxy]-5-(pyridin-2-ylsulfanyl)pyridin-2-yl}amino)-1,2,4-thiadiazol-3-yl]ethane-1,2-diol] | – | – | – | – | stability of the phase as a function of relative humidity [1]: unstable as a function of ambient relative humidity; form after exposure to 95% relative humidity [6]: converted to Form A
17 | Cc1ncccc1Oc1cc(Sc2ccccn2)cnc1Nc1nc([C@H](O)CO)ns1 [phosphate salt, (1S)-1-[5-({3-[(2-methylpyridin-3-yl)oxy]-5-(pyridin-2-ylsulfanyl)pyridin-2-yl}amino)-1,2,4-thiadiazol-3-yl]ethane-1,2-diol] | – | – | – | – | time found stable ([3]; 40° C./75% RH): up to 6 weeks; form change on storage ([3]; 40° C./75% RH): no form change; time found stable ([3]; 60° C.): up to 6 weeks; form change on storage ([3]; 60° C.): no form change
